A short description of experiment [1]: administration of three kinds of samples for 2 months to groups of 30 persons. It is filed as in vivo. The following applies: numbers of the persons; administered for 2 months; group of 30 persons. An excerpt:
(a) a sample of cholic acid alone,
(b) a sample of soybean isoflavone glycoside alone, and
were each administered for 2 months to each group containing 30 persons to be tested.

Experiment [2] in a line: preliminary administration experiment. It is filed as in vivo. The following applies: several persons who ingested the substance alone.

Consider `C[C@H](CCC(=O)O)[C@H]1CC[C@H]2[C@@H]3[C@H](O)C[C@@H]4C[C@H](O)CC[C@]4(C)[C@H]3C[C@H](O)[C@]12C` [cholic acid], for which, in experiment [1], the “Alcoholic beverage tasted good” value came to 8 Persons, the Evacuation became easy worked out at 1 Person Persons, the Feces amount increased result is reported as “No Person” and the No hangover noted is recorded as 4 Persons. The “Significantly recovered from fatigue” value in experiment [1] is “No Person”. Further, in experiment [2], the “troubles by drinking an alcoholic beverage” value is recorded as “ameliorated”.
